Test system: Bcl2 and c-myc gene expression
Test: Evaluation of target engagement: Bcl2 and c-myc gene expression in MV4-11 and MM1.s xenograft tumors
Type: in vivo, mouse
Conditions: oral dose, tumors harvested 3, 6, 12, 24 hrs post dose for Bcl2 and c-myc gene expression as PD biomarkers
Experimental: MV4-11 and MM1.s cells (ATCC) are grown under standard cell culture conditions and (NCr) nu/nu fisol strain of female mice age 6-7 weeks are injected with 5×10^6 cells/animal in 100 μL PBS+100 μL Matrigel in the lower left abdominal flank. By approximately day 28 after MV4-11 and MM1.s cells injection, mice are randomized based on tumor volume (L×W×H)/2) of average ˜500 mm^3. Mice are dosed orally with compound in EA006 formulation at 10 mL/kg body weight dose volume and tumors harvested 3, 6, 12, 24 hrs post dose for Bcl2 and c-myc gene expression analysis as PD biomarkers.

## Cc1noc(C)c1-c1cc(-c2c(C)noc2C)c2nc[nH]c2c1 [Example Compound 1, 4,4′-(1H-benzo[d]imidazole-4,6-diyl)bis(3,5-dimethylisoxazole)]
  In vivo activity: Active

Reference: US9999616B2 (ZENITH EPIGENETICS LTD., priority 2013, dated 2018)
